Assays:
[1] = target: T1, GST tagged LXRalpha LBD (ligand binding domain) (Homo sapiens, UniProt Q13133); experiment: LanthaScreen TR-FRET Liver X Receptor Coactivator Assay, LXR alpha-LBD (co-activator recruitment; IP and % Emax relative to T0901317); format: biochemical; conditions: for LXR alpha IP (nM) / EC50: Inflection Point of co-activator recruitment, LXR alpha-LBD, TR-FRET; for LXR alpha actiivty at max dose (%) / Emax: efficacy at max dose in relation to reference T0901317, LXR alpha-LBD; for Emax: read-out: LXR alpha actiivty at max dose (%)
T1 construct: purchased Invitrogen pv4655
T1 sequence (Q13133 209-447 limits assumed): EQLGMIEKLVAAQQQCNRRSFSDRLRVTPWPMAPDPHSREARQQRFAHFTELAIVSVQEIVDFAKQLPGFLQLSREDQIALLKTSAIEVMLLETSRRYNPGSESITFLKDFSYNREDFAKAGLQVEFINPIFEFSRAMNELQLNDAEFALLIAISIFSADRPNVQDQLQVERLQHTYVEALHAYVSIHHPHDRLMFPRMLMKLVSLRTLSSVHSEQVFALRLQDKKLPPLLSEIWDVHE
Outline: (§1)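 Compounds were first combined with the GST-LBD protein. A premixed fluorescein coactivator peptide and terbium-labelled anti-GST antibody was then added. Plates were incubated at room temperature and TR-FRET measured.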

[2] = target: T2, GST tagged LXRbeta LBD (ligand binding domain) (Homo sapiens, UniProt P55055); experiment: LanthaScreen TR-FRET Liver X Receptor Coactivator Assay, LXR beta-LBD (co-activator recruitment; IP and % Emax relative to T0901317); format: biochemical; conditions: for LXR beta actiivty at max dose (%) / Emax: efficacy at max dose in relation to reference T0901317, LXR beta-LBD; for EC50: Inflection Point of co-activator recruitment, LXR beta-LBD, TR-FRET; for Emax: read-out: LXR beta actiivty at max dose (%)
T2 construct: purchased Invitrogen pv4658.pps
T2 sequence (P55055 222-460 limits assumed): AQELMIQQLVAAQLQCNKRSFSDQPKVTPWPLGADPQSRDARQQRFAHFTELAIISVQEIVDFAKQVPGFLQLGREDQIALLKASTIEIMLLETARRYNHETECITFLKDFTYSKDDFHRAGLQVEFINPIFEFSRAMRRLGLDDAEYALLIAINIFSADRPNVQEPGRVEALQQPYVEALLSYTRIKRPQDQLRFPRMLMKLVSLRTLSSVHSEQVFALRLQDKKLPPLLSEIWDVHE
Outline: as §1

| Structure (SMILES) | LXR alpha IP (nM) [1] | LXR alpha actiivty at max dose (%) [1] [%] | LXR beta actiivty at max dose (%) [2] [%] | EC50 [1] [nM] | Emax [1] [%] | EC50 [2] [nM] | Emax [2] [%] |
| --- | --- | --- | --- | --- | --- | --- | --- |
| CN(C)C(=O)c1ccc(N2CCC(CCCN(C)C(=O)[C@](O)(c3ccccc3)C(F)(F)F)CC2)nc1Cl [Example 1-26, (R)-2-chloro-N,N-dimethyl-6-(4-(3-(3,3,3-trifluoro-2-hydroxy-N-methyl-2-phenylpropanamido)propyl)piperidin-1-yl)nicotinamide] | No IP | 6 | 51 | – | – | – | – |
| CNC(=O)c1ccc(N2CCC3(CC2)CC3CCN(C)C(=O)[C@](O)(c2cccc(OC)c2)C(F)(F)F)nc1Cl (stereo in doubt) [Example 7-20, 2-chloro-N-methyl-6-((R)-1-(2-((R)-3,3,3-trifluoro-2-hydroxy-2-(3-methoxyphenyl)-N-methylpropanamido)ethyl)-6-azaspiro[2.5]octan-6-yl)nicotinamide] | – | – | – | 1180 | 40 | 36 | 60 |
| CN(C)C(=O)c1ccc(N2CCC(CCCNC(=O)[C@](O)(c3cc(Cl)cc(Cl)c3)C(F)(F)F)CC2)nc1Cl [Example 5-13, (R)-2-chloro-6-(4-(3-(2-(3,5-dichlorophenyl)-3,3,3-trifluoro-2-hydroxypropanamido)propyl)piperidin-1-yl)-N,N-dimethylnicotinamide] | No IP | – | – | – | 9 | 187 | 54 |
| COc1cccc([C@@](O)(C(=O)NC[C@@H](F)CC2CCN(c3ccc(C(=O)N(C)C)c(Cl)n3)CC2)C(F)(F)F)c1 [Example 3-6] | No IP | – | – | – | 7 | 961 | 38 |
| CN(C)C(=O)c1ccc(N2CCC(CCCN(C)C(=O)C(C)(C)c3ccccc3)CC2)cc1Cl [Example 4-5, 2-chloro-4-(4-(3-(N,2-dimethyl-2-phenylpropanamido)propyl)piperidin-1-yl)-N,N-dimethylbenzamide] | No IP | – | – | – | 8 | 229 | 50 |
| CN(C)C(=O)c1ccc(N2CCC(CCCN(C)C(=O)[C@](O)(c3cccc(C(F)(F)F)c3)C(F)(F)F)CC2)nc1Cl [Example 1-49, (R)-2-chloro-N,N-dimethyl-6-(4-(3-(3,3,3-trifluoro-2-hydroxy-N-methyl-2-(3-(trifluoromethyl)phenyl)pro-panamido)propyl)piperidin-1-yl)nicotinamide] | No IP | – | – | – | 0 | 54 | 50 |
| CCc1cccc([C@@](O)(C(=O)N(C)CCCC2CCN(c3ccc(C(=O)N(C)C)c(Cl)n3)CC2)C(F)(F)F)c1 [Example 1-28, (R)-2-chloro-6-(4-(3-(2-(3-ethylphenyl)-3,3,3-trifluoro-2-hydroxy-N-methylpropanamido)propyl)piperidin-1-yl)-N,N-dimethylnicotinamide] | No IP | – | – | – | 0 | 67 | 39 |
| CN(C)C(=O)c1ccc(N2CCC(CCCNC(=O)C3(c4ccccc4)CCCC3)CC2)nc1Cl [Example 5-15, 2-chloro-N,N-dimethyl-6-(4-(3-(1-phenylcyclopentane-carboxamido)propyl)piperidin-1-yl)nicotinamide] | – | – | – | 2730 | 22 | 215 | 83 |
| CNC(=O)c1ccc(N2CCC(CCCN(C)C(=O)[C@](O)(c3cccc(OC)c3)C(F)(F)F)CC2)nc1Cl [Example 2-11, (R)-2-chloro-N-methyl-6-(4-(3-(3,3,3-trifluoro-2-hydroxy-2-(3-methoxyphenyl)-N-methylpropanamido)propyl)piperidin-1-yl)nicotinamide] | No IP | – | – | – | 13 | 524 | 60 |
| COc1cccc([C@](O)(C(=O)N(C)C[C@@H]2C[C@@H]2CC2CCN(c3ccc(C(=O)N(C)C)c(Cl)n3)CC2)C(F)(F)F)c1 [Example 18-3, 2-chloro-N,N-dimethyl-6-(4-(((1S,2R)-2-(((S)-3,3,3-trifluoro-2-hydroxy-2-(3-methoxyphenyl)-N-methylpropanamido)methyl)cyclopropyl)methyl)piperidin-1-yl)nicotinamide] | No IP | – | – | – | 0 | 518 | 25 |
| COc1cccc([C@@](O)(C(=O)N(C)CCCC2CCN(c3ccc(C(=O)N(C)C)c(Cl)c3)CC2)C(F)(F)F)c1 [Example 4-1, (R)-2-chloro-N,N-dimethyl-4-(4-(3-(3,3,3-trifluoro-2-hydroxy-2-(3-methoxyphenyl)-N-methylpropanamido)propyl)piperidin-1-yl)benzamide] | No IP | – | – | – | 8 | 247 | 59 |
| CN(C)C(=O)c1ccc(N2CCC([C@H]3C[C@H]3CNC(=O)[C@](O)(c3ccccc3)C(F)(F)F)CC2)nc1Cl [Example 15-9] | – | – | – | 4220 | 39 | 393 | 54 |
| CN(C)C(=O)c1ccc(N2CCC(CCCN(C)C(=O)C(O)(c3ccccc3)C(F)(F)F)CC2)cc1Cl (single isomer, unassigned) [Example 4-7, 2-chloro-N,N-dimethyl-4-(4-(3-(3,3,3-trifluoro-2-hydroxy-N-methyl-2-phenylpropanamido)propyl)piperidin-1-yl)benzamide] | No IP | 12 | 48 | – | – | 369 | – |
| COc1cccc([C@@](O)(C(=O)N(C)CC[C@H]2CC23CCN(c2ccc(C(=O)N(C)C4CC4)c(Cl)n2)CC3)C(F)(F)F)c1 [Example 7-18, 2-chloro-N-cyclopropyl-N-methyl-6-((R)-1-(2-((R)-3,3,3-trifluoro-2-hydroxy-2-(3-methoxyphenyl)-N-methylpropanamido)ethyl)-6-azaspiro[2.5]octan-6-yl)nicotinamide] | No IP | – | – | – | 16 | 45 | 57 |
| COc1cccc([C@@](O)(C(=O)N(C)CCCC2CCN(c3ccc(C(=O)N(C)CCO)c(Cl)n3)CC2)C(F)(F)F)c1 [Example 2-5, (R)-2-chloro-N-(2-hydroxyethyl)-N-methyl-6-(4-(3-(3,3,3-trifluoro-2-hydroxy-2-(3-methoxyphenyl)-N-methylpropanamido)propyl)piperidin-1-yl)nicotinamide] | – | – | – | 705 | 23 | 28 | 63 |
| CN(C)C(=O)c1ccc(N2CCC(CCCN(C)C(=O)[C@](O)(c3ccccc3)C3CC3)CC2)nc1Cl [Example 1-24, (R)-2-chloro-6-(4-(3-(2-cyclopropyl-2-hydroxy-N-methyl-2-phenylacetamido)propyl)piperidin-1-yl)-N,N-dimethylnicotinamide] | No IP | – | – | – | 12 | 351 | 59 |
| CN(C)C(=O)c1ccc(N2CCC(CCCNC(=O)[C@]3(c4ccccc4)CCCO3)CC2)nc1Cl [Example 5-19, (R)-2-chloro-N,N-dimethyl-6-(4-(3-(2-phenyltetrahydrofuran-2-carboxamido)propyl)piperidin-1-yl)nicotinamide] | – | – | – | 2340 | 36 | 160 | 104 |
| CCc1cccc([C@](O)(C(=O)N(C)CCCC2CCN(c3ccc(C(=O)N(C)C)c(Cl)n3)CC2)C(F)(F)F)c1 [Example 1-31, (S)-2-chloro-6-(4-(3-(2-(3-ethylphenyl)-3,3,3-trifluoro-2-hydroxy-N-methylpropanamido)propyl)piperidin-1-yl)-N,N-dimethylnicotinamide] | No IP | – | – | – | 0 | 163 | 56 |
| COc1cccc([C@@](O)(C(=O)N(C)CCCC2CCN(c3ccc(C(=O)N4CCCC4)c(Cl)n3)CC2)C(F)(F)F)c1 [Example 2-6, (R)-N-(3-(1-(6-chloro-5-(pyrrolidine-1-carbonyl)pyridin-2-yl)piperidin-4-yl)propyl)-3,3,3-trifluoro-2-hydroxy-2-(3-methoxyphenyl)-N-methylpropanamide] | No IP | – | – | – | 0 | 126 | 50 |
| CC(C)[C@](O)(C(=O)N(C)CCCC1CCN(c2ccc(C(=O)N(C)C)c(Cl)n2)CC1)c1ccccc1 [Example 1-2, (R)-2-chloro-6-(4-(3-(2-hydroxy-N,3-dimethyl-2-phenylbutanamido)propyl)piperidin-1-yl)-N,N-dimethylnicotinamide] | No IP | – | – | – | 16 | 259 | 68 |
